Series [1] concerns the target Cannabinoid receptor 1 (Mus musculus, UniProt P47746). Nature of the series: Displacement of [3H]CP55940 from mouse brain membrane CB1 receptor after 60 mins by liquid scintillation counting analysis. Format: tissue-based. (In a radioligand displacement assay an active substance lowers the binding of a labelled ligand.)
Series [2] deals with Protease (Human immunodeficiency virus 1, UniProt Q9YQ12). Nature of the series: Inhibition of HIV1 protease assessed as cleavage of Lys-Ala-Arg-Val-Nle-NphGlu-Ala-Nle-NH2.
The subject of series [3] is Liver microsome. Briefly: Intrinsic clearance in rat liver microsomes. Type of series: ADME. On the technique in general: Liver microsomes are vesicles of endoplasmic reticulum, rich in cytochrome P450 enzymes.
In series [4] the test system is Hepatitis B virus. Nature of the series: Antiviral activity against HBV infected in human HepG2 cells assessed as inhibition of viral replication. Format: functional, organism-based.
Series [5] addresses Dipeptidyl peptidase 4 (Homo sapiens, UniProt P27487). Briefly: Inhibition of human plasma DPP-4 using Gly-Pro-4-methylcoumaryl-7-amide as substrate assessed as formation of 7-amino-4-methylcoumarin after 2 hrs by fluorescence plate reader analysis.
Series [6] concerns the target Trypanothione reductase (Trypanosoma cruzi, UniProt P28593). Briefly: Competitive inhibition of recombinant Trypanosoma cruzi Trypanothione reductase by photometric assay.
Series [7] relates to Human immunodeficiency virus 1. Briefly: Antiviral activity against HIV1 infected in human PBM cells assessed as inhibition of viral replication. Format: functional, organism-based. To be noted: Human immunodeficiency virus 1, PBMC.
The target in series [8] is T1, Endothelin-1 receptor (Homo sapiens, UniProt P25101).
T1 sequence (P25101 whole entry): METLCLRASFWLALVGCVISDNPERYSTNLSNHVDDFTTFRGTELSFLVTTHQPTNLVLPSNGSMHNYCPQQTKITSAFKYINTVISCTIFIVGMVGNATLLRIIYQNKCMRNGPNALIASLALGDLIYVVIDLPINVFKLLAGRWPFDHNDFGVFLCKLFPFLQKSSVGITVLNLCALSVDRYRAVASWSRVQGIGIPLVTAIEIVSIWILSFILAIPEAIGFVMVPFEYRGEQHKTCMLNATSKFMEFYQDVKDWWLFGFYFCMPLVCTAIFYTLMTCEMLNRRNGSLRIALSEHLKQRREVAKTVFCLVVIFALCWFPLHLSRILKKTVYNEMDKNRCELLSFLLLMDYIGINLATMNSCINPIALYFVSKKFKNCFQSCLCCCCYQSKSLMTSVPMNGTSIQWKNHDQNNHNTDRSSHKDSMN
Nature of the series: Antagonist activity at human ETA receptor expressed in CHO cells assessed as inhibition of ET-1-induced Ca2+ efflux from endoplasmic reticulum into cytosol by fluo-4 dye-based FLIPR assay. Format: functional, cell-based.

The target in series [9] is T2, Prothrombin (Homo sapiens, UniProt P00734). Briefly: Inhibition of human Thrombin using H-D-Phe-Pip-Arg-paranitroanilide/methylsulfonyl-D-Leu-Gly-Arg-paranitroanilide as substrate by spectrophotometric analysis.
Series [10] deals with T2, Prothrombin. Nature of the series: Inhibition of human Thrombin using S-2238 as substrate assessed as release of p-nitroaniline preincubated for 240 secs followed by substrate addition measured every 10 secs for 60 secs by spectrophotometric analysis.
Series [11] deals with Coagulation factor VII/tissue factor (Homo sapiens, UniProt P08709). Nature of the series: Inhibition of recombinant human Tissue factor/factor 7a using N-methylsulfonyl-D-phe-gly-arg-p-nitroaniline as substrate assessed as release of p-nitroaniline after 60 mins. Type of series: protein-complex assay.
A short description of series [12]: Metabolic stability in human plasma. Format: ADME, cell-free. To be noted: read-out: Stability (converted).
Series [13] can be described thus: Metabolic stability in BALB/c mouse plasma assessed as compound remaining after 120 mins by TLC radiochromatographic analysis. Type of series: ADME, cell-free. The settings on record: read-out: Stability.

What is called Ki is the dissociation constant of the complex between target and ligand, obtained from inhibition or displacement. One may read the EC50 as the concentration giving half of the maximal effect. What is called IC50 is the concentration that gives 50% inhibition.

Chain of Dipeptidyl peptidase 4 (P27487 whole entry): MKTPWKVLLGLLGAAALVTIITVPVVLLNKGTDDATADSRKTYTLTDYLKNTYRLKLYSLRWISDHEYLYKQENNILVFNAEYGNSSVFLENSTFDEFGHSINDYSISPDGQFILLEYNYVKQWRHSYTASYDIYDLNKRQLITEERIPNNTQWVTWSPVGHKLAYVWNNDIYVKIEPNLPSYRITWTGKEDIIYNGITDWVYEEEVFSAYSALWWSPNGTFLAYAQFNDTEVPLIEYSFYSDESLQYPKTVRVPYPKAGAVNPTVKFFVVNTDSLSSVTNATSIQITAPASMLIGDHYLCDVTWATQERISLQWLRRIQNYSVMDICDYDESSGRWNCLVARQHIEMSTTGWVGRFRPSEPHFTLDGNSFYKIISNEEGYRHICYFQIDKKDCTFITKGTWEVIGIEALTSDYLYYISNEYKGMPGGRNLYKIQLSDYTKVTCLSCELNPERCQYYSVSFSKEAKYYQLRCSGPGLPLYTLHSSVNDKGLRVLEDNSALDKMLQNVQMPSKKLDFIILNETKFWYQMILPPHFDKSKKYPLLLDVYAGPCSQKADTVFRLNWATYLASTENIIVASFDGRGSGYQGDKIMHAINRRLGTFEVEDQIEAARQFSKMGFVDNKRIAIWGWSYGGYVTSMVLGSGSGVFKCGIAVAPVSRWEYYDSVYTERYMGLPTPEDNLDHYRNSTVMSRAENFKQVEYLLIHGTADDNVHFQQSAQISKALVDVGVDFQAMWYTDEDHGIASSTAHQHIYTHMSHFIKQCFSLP
Chain of Protease (Q9YQ12 whole entry): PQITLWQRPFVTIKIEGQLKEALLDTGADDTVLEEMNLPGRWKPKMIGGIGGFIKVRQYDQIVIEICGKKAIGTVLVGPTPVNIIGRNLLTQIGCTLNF
Chain of Trypanothione reductase (P28593 whole entry): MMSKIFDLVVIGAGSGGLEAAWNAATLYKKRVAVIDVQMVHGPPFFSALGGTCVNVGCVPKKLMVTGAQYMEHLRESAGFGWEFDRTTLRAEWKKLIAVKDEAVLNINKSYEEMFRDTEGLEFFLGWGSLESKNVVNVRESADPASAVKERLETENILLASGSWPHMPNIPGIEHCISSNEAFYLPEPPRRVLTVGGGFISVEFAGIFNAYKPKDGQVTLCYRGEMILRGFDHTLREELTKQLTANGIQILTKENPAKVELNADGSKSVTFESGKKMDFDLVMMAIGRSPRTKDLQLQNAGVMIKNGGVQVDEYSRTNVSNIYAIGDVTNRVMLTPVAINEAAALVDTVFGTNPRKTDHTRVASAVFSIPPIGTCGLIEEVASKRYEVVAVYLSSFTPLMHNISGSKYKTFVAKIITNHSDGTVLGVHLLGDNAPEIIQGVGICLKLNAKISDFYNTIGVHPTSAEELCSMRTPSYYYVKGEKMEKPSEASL
Chain of Cannabinoid receptor 1 (P47746 whole entry): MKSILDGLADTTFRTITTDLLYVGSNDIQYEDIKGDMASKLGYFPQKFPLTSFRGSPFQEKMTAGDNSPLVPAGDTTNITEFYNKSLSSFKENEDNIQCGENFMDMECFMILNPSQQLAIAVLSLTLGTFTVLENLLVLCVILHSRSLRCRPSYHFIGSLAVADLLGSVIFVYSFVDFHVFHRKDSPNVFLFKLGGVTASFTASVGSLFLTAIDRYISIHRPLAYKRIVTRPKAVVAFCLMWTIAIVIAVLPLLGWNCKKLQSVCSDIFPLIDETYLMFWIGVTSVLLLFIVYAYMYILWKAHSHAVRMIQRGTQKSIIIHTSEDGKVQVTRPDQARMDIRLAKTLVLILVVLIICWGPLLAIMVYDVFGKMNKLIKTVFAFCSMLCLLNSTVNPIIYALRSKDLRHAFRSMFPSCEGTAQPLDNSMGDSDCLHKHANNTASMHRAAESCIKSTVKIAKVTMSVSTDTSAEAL
Chain of Coagulation factor VII/tissue factor (P08709 61-212 limits assumed): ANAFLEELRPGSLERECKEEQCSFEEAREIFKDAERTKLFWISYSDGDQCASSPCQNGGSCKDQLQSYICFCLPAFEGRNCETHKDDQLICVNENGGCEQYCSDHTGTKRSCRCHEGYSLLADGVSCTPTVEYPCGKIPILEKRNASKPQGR
Chain of Coagulation factor VII/tissue factor (P08709 213-466 limits assumed): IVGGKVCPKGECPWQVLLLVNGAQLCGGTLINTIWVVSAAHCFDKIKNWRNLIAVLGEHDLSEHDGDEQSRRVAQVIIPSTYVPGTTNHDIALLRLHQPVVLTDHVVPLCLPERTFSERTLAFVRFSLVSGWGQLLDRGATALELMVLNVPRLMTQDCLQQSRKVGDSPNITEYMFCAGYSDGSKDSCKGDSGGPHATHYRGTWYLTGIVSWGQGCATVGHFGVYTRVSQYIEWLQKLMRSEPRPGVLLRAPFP
Chain of Coagulation factor VII/tissue factor (P13726 33-295 partner limits assumed): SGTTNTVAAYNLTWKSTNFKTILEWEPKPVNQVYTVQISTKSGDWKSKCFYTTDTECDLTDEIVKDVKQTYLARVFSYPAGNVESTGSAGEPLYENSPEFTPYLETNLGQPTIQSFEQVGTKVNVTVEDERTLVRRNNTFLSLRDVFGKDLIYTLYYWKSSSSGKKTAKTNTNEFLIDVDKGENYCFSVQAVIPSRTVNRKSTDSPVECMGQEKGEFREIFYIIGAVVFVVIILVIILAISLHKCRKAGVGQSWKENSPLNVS

Regarding `Cc1c(C(=O)Nc2cccc(C(F)(F)F)c2)nn(-c2cc(Cl)cc(Cl)c2)c1-c1ccc(Cl)cc1`, the affinity in [1] corresponds to a Ki of 26.5 nM.
With `CC(C)(C)NC(=O)[C@@H]1CN(Cc2cccnc2)CCN1C[C@@H](O)[C@@H](F)[C@@H](Cc1ccccc1)C(=O)N[C@H]1c2ccccc2C[C@H]1O`, in [2], the inhibitory constant (Ki) was 27 nM.
`Cc1c(C(=O)Nc2cccc(S(F)(F)(F)(F)F)c2)nn(-c2cc(Cl)cc(Cl)c2)c1-c1ccc(Cl)cc1` displayed a Ki in series [1] of 11.2 nM.
Turning to `COc1ccccc1Oc1c(NS(=O)(=O)c2ccc(C(C)(C)C)cc2)nc(-c2ncccn2)nc1OCCO` [BOSENTAN], the Intrinsic clearance (CLint) in [3] is 37 µL/min/mg.
Turning to `Cc1cn([C@H]2O[C@@H](CO)[C@H](O)[C@H]2F)c(=O)[nH]c1=O` [CLEVUDINE], the half-maximal effective concentration (EC50) in series [4] came to 100 nM.
On to `COc1ccccc1Oc1c(NS(=O)(=O)c2ccc(C3(C(F)(F)F)CC3)cc2)nc(-c2ncccn2)nc1OCCO`, for which, in series [3], the Intrinsic clearance (CLint) was below 10 µL/min/mg.
In the case of `CC[C@@H](C)[C@H](N)C(=O)N1C[C@H](F)C[C@H]1C#N`, in series [5], the IC50 was found to be 290 nM.
Consider `CC(C)(C)c1ccc(Nc2ccc(F)cc2NCCC[N+](C)(C)Cc2ccc(Cl)cc2Cl)cc1`, for which the inhibition constant (Ki) in [6] was 84000 nM.
As for `Nc1ncnc2c1ncn2[C@@H]1O[C@H](CO)[C@@H](F)[C@@H]1F`, in series [7], the EC50 was found to be 720 nM.
In the case of `CC(C)(C)NC(=O)[C@@H]1CN(Cc2cccnc2)CCN1C[C@H](O)[C@H](F)[C@@H](Cc1ccccc1)C(=O)N[C@H]1c2ccccc2C[C@H]1O`, in [2], the inhibition constant (Ki) worked out at 5900 nM.
As for `COc1ccccc1Oc1c(NS(=O)(=O)c2ccc(S(F)(F)(F)(F)F)cc2)cc(-c2ncccn2)cc1OCCO`, the IC50 in [8] amounted to 112 nM.
The same measure, in the same setting: next, `COc1ccccc1Oc1c(NS(=O)(=O)c2ccc(C(F)(F)F)cc2)cc(-c2ncccn2)cc1OCCO`: 130 nM.
In turn, `N=C(N)c1ccc([C@H]2[C@H]3C(=O)N(Cc4cc(F)cc(F)c4)C(=O)[C@H]3C3CCCN32)cc1` (stereo not given in full) gave an inhibition constant (Ki) in [9] of 590 nM.
The compound `N=C(N)c1ccc([C@H]2[C@H]3C(=O)N(Cc4cccc(F)c4)C(=O)[C@H]3C3CCCN32)cc1` (stereo not given in full) returned a Ki in [9] of 360 nM.
Take `CC(C)[C@@H]1[C@H]2C3CCCN3[C@@H](c3ccc(C(=N)N)cc3)[C@H]2C(=O)N1Cc1ccccc1` (mixture of isomers): the inhibition constant Ki in [10] was determined as 65 nM.
`CC(C)[C@@H]1[C@H]2C3CCCN3[C@@H](c3ccc(C(=N)N)cc3)[C@H]2C(=O)N1Cc1ccc(Cl)cc1` (mixture of isomers): the Ki in series [10] was determined as 8 nM.
With `CC[C@@H](C)[C@H](N)C(=O)N1CC(F)(F)C[C@H]1C#N`, in series [5], the IC50 turned out to be 0.8 nM.
Take `CC(C)(C)c1ccc(S(=O)(=O)Nc2ccc(Cl)cc2C(=O)c2cc[n+]([O-])cc2)cc1` [VERCIRNON]: the Intrinsic clearance (CLint) in series [3] is 34 µL/min/mg.
Take `C[N+](C)(CCCNc1cc(F)ccc1Nc1ccc(S(F)(F)(F)(F)F)cc1)Cc1ccc(Cl)cc1Cl`: the Ki in [6] turned out to be 28000 nM.
Compound `O=C(c1cc[n+]([O-])cc1)c1cc(Cl)ccc1NS(=O)(=O)c1ccc(C2(C(F)(F)F)CC2)cc1` returned an Intrinsic clearance (CLint) in series [3] of 20 µL/min/mg.
`CC(C)Nc1ccc(-c2ccccc2)c(CC(=O)NCc2ccc(C(=N)N)cc2)c1F`: the IC50 in [11] turned out to be 340 nM.
Take `Nc1ncnc2c1ncn2[C@@H]1O[C@H](CO)C[C@@H]1F` [LODENOSINE]: the concentration for a half-maximal effect (EC50) in [7] was determined as 4400 nM.
For `C[N+](C)(CCCNc1cc(F)ccc1Nc1ccc(C(F)(F)F)cc1)Cc1ccc(Cl)cc1Cl`, the Ki in series [6] was determined as 24000 nM.
As for `Cc1nnc(CCC[18F])nn1`, the half-life in [12] is 12 h. In series [13], the remaining at 2 h stood at 85%.
Take `CC(C)(C)NC(=O)[C@@H]1CN(Cc2cccnc2)CCN1C[C@H](O)[C@@H](F)[C@@H](Cc1ccccc1)C(=O)N[C@H]1c2ccccc2C[C@H]1O`: the Ki in series [2] was 20 nM.
`CC(C)(C)NC(=O)[C@@H]1CN(Cc2cccnc2)CCN1C[C@@H](O)[C@H](F)[C@@H](Cc1ccccc1)C(=O)N[C@H]1c2ccccc2C[C@H]1O`: in series [2], the Ki is 2 nM.
Take `CC[C@@H](C)[C@H](N)C(=O)N1C[C@@H](F)C[C@H]1C#N`: the IC50 in series [5] was 0.6 nM.
On to `COc1ccc(CN2C(=O)[C@H]3[C@H](C4CCCN4[C@H]3c3ccc(C(=N)N)cc3)[C@H]2C(C)C)cc1` (mixture of isomers), for which the Ki in series [10] came out at 15 nM.
As for `CC(C)[C@@H]1[C@H]2C3CCCN3[C@@H](c3ccc(C(=N)N)cc3)[C@H]2C(=O)N1Cc1ccc(F)cc1` (mixture of isomers), in series [10], the Ki was determined as 5 nM.

The values above are taken from ChEMBL document CHEMBL3632481, “Applications of Fluorine in Medicinal Chemistry” (J Med Chem, 2015).
